Measured values from article PMC10643210, “Expanding structural diversity of 5′-aminouridine moiety of sansanmycin via mutational biosynthesis” (Frontiers in Bioengineering and Biotechnology, 2023).
Converted amounts (≈) assume the structure as drawn.

Assays:
M. tuberculosis M6600 = conditions: clinical multidrug-resistant isolate; for MIC M. tuberculosis M6600: Alamar blue, 7H9 broth, triplicate wells
M. tuberculosis M9483 = conditions: clinical multidrug-resistant isolate; for MIC M. tuberculosis M9483: Alamar blue, 7H9 broth, triplicate wells
M. tuberculosis M3551 = conditions: clinical multidrug-resistant isolate; for MIC M. tuberculosis M3551: Alamar blue, 7H9 broth, triplicate wells

| SMILES | M. tuberculosis M6600, resistant/sensitive class of control drugs (M. tuberculosis M6600) | M. tuberculosis M9483, resistant/sensitive class of control drugs (M. tuberculosis M9483) | M. tuberculosis M3551, resistant/sensitive class of control drugs (M. tuberculosis M3551) | MIC M. tuberculosis M6600 (M. tuberculosis M6600) | MIC M. tuberculosis M9483 (M. tuberculosis M9483) | MIC M. tuberculosis M3551 (M. tuberculosis M3551) |
| --- | --- | --- | --- | --- | --- | --- |
| NNC(=O)c1ccncc1 [INH, isoniazid] | R | R | R |  |  |  |
| CC(=O)NC[C@H]1CN(c2ccc(N3CCOCC3)c(F)c2)C(=O)O1 [LZD, linezolid] | S (sensitive to LZD, at 2.0 μg/mL) | S (sensitive to LZD, at 2.0 μg/mL) | S (sensitive to LZD, at 2.0 μg/mL) |  |  |  |
| CO[C@H]1/C=C/O[C@@]2(C)Oc3c(C)c(O)c4c(O)c(c(/C=N/N5CCN(C)CC5)c(O)c4c3C2=O)NC(=O)/C(C)=C\C=C\[C@H](C)[C@H](O)[C@@H](C)[C@@H](O)[C@@H](C)[C@H](OC(C)=O)[C@@H]1C [RIF, rifampicin] | R | R | R |  |  |  |
| CSCC[C@H](NC(=O)N[C@@H](Cc1c[nH]c2ccccc12)C(=O)O)C(=O)N[C@H](C(=O)N/C=C1/C[C@@H](O)[C@H](n2ccc(=O)[nH]c2=O)O1)[C@H](C)N(C)C(=O)[C@@H](N)Cc1cccc(O)c1 [SS-A, sansanmycin A] |  |  |  | 16 µg/mL (≈ 18.5 µM) | 16 µg/mL (≈ 18.5 µM) | 16 µg/mL (≈ 18.5 µM) |
| CSCC[C@H](NC(=O)N[C@@H](Cc1c[nH]c2ccccc12)C(=O)O)C(=O)N[C@H](C(=O)NC[C@H]1O[C@@H](n2ccc(=O)[nH]c2=O)C[C@@H]1O)[C@H](C)N(C)C(=O)[C@@H](N)Cc1cccc(O)c1 [SS-KK-1] |  |  |  | >64 µg/mL | >64 µg/mL | >64 µg/mL |
| CSCC[C@H](NC(=O)N[C@@H](Cc1c[nH]c2ccccc12)C(=O)O)C(=O)N[C@H](C(=O)NC[C@H]1O[C@@H](n2ccc(=O)[nH]c2=O)C[C@@H]1O)[C@H](C)N(C)C(=O)[C@@H](N)Cc1ccc(O)cc1 [SS-KK-2] |  |  |  | 64 µg/mL (≈ 73.9 µM) | 32 µg/mL (≈ 37 µM) | 64 µg/mL (≈ 73.9 µM) |
